The numbers were not newly measured in patent publication US20110070315A1 (priority 2009, published 2011), which cites them from elsewhere.

Structures are written as SMILES.

This data set concerns hair loss.

Consider `Cl.NCCCC[C@H](N)C(=O)O` [L—Lysine HCl, L-Lysine HCl], for which the decreases hair loss result is on record as “one half”.
